Results taken from US20100168103A1, “DIARYL PIPERIDINE COMPOUNDS AS CALCIUM CHANNEL BLOCKERS” (NEUROMED PHARMACEUTICALS LTD., priority 2006, published 2010).
Read-outs that look alike come from different tables or passages of the source.

Target: T1, rat brain N-type calcium channel subunits (α1B+α2δ+β1b cDNA subunits) (Rattus norvegicus, UniProt Q02294)
T1 construct: expressed in transfected cells; host or cells: HEK 293
Test: N-type calcium channel block, whole cell patch clamp in transfected HEK 293 cells
Type: cell-based
Details: holding potential −80 mV to +10 mV
Description: N-type calcium channel blocking activity was assayed in human embryonic kidney cells, HEK 293, stably transfected with the rat brain N-type calcium channel subunits (α1B+α2δ+β1b cDNA subunits). Alternatively, N-type calcium channels (α1B+α2δ+β1b cDNA subunits), L-type channels (α1C+α2δ+β1b cDNA subunits) and P/Q-type channels (α1A+α2δ+β1b cDNA subunits) were transiently expressed in HEK 293 cells. Briefly, cells were cultured in Dulbecco's modified eagle medium (DMEM) supplemented with 10% fetal bovine serum, 200 U/ml penicillin and 0.2 mg/ml streptomycin at 37° C. with 5% CO2. At 85% confluency cells were split with 0.25% trypsin/1 mM EDTA and plated at 10% confluency on glass coverslips. At 12 hours the medium was replaced and the cells transiently transfected using a standard calcium phosphate protocol and the appropriate calcium channel cDNA's. Fresh DMEM was supplied and the cells transferred to 28° C./5% CO2. Cells were incubated for 1 to 2 days prior to whole cell recording.
Whole cell patch clamp experiments were performed using an Axopatch 200B amplifier (Axon Instruments, Burlingame, Calif.) linked to a personal computer equipped with pCLAMP software. The external and internal recording solutions contained, respectively, 5 mM BaCl2, 10 mM MgCl2, 10 mM HEPES, 40 mM TEACl, 10 mM glucose, 87.5 mM CsCl (pH 7.2) and 108 mM CsMS, 4 mM MgCl2, 9 mM EGTA, 9 mM HEPES (pH 7.2). Currents were typically elicited from a holding potential of −80 mV to +10 mV using Clampex software (Axon Instruments). Typically, currents were first elicited with low frequency stimulation (0.067 Hz) and allowed to stabilize prior to application of the compounds. The compounds were then applied during the low frequency pulse trains for two to three minutes to assess tonic block, and subsequently the pulse frequency was increased to 0.2 Hz to assess frequency dependent block. Data were analyzed using Clampfit (Axon Instruments) and SigmaPlot 4.0 (Jandel Scientific).

[1] = low frequency stimulation 0.067 Hz (tonic block), 5 mM BaCl2, read-out: IC50 @ 0.067 Hz
[2] = pulse frequency 0.2 Hz (frequency dependent block), 5 mM BaCl2, read-out: IC50 @ 0.2 Hz

T1 sequence (Q02294 whole entry): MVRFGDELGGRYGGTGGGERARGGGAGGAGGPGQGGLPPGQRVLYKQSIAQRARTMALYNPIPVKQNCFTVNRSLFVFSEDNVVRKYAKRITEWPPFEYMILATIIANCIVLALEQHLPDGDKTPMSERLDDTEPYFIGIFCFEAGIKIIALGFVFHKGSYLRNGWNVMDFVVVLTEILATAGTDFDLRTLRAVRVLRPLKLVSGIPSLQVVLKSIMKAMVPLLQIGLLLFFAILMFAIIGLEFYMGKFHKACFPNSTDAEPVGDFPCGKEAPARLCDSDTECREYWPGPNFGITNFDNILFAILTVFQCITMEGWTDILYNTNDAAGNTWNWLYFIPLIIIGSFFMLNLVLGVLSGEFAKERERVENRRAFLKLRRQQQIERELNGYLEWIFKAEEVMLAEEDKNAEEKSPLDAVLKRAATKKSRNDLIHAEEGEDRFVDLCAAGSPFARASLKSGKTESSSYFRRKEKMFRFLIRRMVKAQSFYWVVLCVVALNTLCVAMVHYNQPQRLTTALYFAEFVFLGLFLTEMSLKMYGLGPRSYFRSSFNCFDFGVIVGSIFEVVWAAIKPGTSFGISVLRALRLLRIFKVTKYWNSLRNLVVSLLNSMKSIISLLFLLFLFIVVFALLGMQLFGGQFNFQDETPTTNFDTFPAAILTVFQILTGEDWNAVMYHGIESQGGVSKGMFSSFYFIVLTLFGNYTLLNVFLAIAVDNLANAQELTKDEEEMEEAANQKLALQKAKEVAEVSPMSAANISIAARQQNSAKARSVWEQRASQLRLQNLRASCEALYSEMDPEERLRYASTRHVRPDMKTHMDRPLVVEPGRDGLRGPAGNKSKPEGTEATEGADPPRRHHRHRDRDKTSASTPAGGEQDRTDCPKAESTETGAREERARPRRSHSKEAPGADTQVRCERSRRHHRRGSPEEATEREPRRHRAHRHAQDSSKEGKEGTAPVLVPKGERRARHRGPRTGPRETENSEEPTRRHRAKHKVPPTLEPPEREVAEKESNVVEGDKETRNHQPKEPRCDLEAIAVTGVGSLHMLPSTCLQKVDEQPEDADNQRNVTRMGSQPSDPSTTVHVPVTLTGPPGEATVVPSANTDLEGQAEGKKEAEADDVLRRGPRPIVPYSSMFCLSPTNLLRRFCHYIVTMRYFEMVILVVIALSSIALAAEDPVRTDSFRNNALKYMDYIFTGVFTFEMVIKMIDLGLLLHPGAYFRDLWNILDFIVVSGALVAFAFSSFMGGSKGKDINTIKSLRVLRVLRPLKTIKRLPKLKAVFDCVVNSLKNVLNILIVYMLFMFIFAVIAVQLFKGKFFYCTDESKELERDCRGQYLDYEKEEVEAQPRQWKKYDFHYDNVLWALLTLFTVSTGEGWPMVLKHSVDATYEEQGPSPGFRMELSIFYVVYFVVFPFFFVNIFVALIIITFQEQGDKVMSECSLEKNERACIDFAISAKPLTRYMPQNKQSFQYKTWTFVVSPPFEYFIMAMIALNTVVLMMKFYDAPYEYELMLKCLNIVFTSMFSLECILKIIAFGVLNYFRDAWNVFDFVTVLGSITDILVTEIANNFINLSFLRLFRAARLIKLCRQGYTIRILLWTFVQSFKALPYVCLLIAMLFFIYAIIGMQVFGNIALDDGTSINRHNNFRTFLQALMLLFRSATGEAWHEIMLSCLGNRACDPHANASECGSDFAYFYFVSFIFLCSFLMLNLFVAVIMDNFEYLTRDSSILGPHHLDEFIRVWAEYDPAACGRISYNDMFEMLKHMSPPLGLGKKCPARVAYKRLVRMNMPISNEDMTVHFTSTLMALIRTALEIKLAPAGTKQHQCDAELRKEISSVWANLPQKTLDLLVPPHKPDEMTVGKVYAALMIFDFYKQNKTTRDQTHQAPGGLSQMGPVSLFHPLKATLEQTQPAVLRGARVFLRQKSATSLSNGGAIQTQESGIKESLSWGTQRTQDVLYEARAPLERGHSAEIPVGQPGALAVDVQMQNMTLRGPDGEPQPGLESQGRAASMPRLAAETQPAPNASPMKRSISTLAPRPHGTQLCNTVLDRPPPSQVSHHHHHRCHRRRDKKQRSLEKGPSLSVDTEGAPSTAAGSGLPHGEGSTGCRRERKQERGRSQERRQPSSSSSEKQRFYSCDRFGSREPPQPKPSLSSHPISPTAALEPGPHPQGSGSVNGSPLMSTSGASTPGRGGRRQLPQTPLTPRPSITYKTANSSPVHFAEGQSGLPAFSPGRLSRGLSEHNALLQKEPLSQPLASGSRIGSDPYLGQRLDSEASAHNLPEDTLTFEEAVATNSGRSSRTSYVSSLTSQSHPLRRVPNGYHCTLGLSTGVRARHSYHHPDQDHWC
T1 sequence (P54290 25-944 partner limits assumed): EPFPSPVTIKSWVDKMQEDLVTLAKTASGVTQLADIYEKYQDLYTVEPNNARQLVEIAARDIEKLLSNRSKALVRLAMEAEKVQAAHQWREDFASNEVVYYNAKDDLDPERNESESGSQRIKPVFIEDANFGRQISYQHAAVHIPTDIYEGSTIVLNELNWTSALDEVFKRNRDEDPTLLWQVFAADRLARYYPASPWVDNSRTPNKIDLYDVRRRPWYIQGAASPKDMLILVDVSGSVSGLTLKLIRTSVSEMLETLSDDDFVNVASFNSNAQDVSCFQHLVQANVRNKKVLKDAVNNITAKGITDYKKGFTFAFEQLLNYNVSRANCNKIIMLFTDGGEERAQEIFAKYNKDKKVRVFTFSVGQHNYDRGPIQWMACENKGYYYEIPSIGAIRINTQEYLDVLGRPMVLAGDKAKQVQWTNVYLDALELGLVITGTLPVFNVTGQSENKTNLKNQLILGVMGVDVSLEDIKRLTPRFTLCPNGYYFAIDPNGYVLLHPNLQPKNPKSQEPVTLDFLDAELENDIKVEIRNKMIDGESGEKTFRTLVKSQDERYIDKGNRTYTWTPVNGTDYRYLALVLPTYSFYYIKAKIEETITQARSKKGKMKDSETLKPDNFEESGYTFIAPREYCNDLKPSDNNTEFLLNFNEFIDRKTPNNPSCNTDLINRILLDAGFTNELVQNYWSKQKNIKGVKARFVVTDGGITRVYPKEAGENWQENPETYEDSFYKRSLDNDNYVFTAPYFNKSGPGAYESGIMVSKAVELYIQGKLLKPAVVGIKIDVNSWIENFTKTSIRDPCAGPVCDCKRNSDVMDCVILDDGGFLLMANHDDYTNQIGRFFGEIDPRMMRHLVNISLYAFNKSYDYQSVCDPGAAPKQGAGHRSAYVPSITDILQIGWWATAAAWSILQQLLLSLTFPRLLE
T1 sequence (P54290 945-1091 partner limits assumed): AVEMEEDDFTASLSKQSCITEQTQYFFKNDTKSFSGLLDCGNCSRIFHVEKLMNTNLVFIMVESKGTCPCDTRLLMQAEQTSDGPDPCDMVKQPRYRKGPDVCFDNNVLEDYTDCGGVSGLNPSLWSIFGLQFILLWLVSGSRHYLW
T1 sequence (P54283 whole entry partner): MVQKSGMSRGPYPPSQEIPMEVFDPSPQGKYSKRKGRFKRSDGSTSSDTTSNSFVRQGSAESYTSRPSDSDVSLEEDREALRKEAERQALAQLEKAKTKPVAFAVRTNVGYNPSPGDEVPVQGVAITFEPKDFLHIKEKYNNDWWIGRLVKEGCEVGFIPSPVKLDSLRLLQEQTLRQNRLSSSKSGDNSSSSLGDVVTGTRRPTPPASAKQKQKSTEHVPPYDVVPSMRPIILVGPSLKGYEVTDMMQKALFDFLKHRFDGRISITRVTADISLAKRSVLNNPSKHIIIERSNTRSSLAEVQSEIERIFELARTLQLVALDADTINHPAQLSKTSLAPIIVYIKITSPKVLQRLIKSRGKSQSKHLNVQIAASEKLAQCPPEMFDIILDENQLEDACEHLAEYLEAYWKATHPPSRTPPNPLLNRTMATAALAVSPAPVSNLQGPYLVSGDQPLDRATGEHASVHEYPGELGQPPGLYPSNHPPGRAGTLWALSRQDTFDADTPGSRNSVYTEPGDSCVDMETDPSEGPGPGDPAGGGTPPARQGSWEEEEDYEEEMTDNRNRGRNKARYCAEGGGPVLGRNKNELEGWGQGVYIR

SMILES	IC50 [1]	IC50 [2]
CN1CCN(CC2CCN(C(=O)COC(c3ccccc3)c3ccccc3)CC2)CC1 [Compound 4, 2-(benzhydryloxy)-1-(4-((4-methylpiperazin-1-yl)methyl)piperidin-1-yl)ethanone]	> 5650 nM	> 3830 nM
CN1CCN(CC2CCN(C(=O)C[S+]([O-])C(c3ccccc3)c3ccccc3)CC2)CC1 (stereo not shown) [Compound 6, 2-(benzhydrylsulfinyl)-1-(4-((4-methylpiperazin-1-yl)methyl)piperidin-1-yl)ethanone]	8550 nM	5200 nM
CN1CCN(C(=O)C2CCN(C(=O)CNC(c3ccccc3)c3ccccc3)CC2)CC1 [Compound 7, 2-(benzhydrylamino)-1-(4-(4-methylpiperazine-1-carbonyl)piperidin-1-yl)ethanone]	4790 nM	2380 nM
CN1CCN(C(=O)C2CCN(C(=O)COC(c3ccccc3)c3ccccc3)CC2)CC1 [Compound 8, 2-(benzhydryloxy)-1-(4-(4-methylpiperazine-1-carbonyl)piperidin-1-yl)ethanone]	5110 nM	1730 nM
CN1CCN(C(=O)C2CCN(C(=O)C[S+]([O-])C(c3ccccc3)c3ccccc3)CC2)CC1 (stereo not shown) [Compound 9, 2-(benzhydrylsulfinyl)-1-(4-(4-methylpiperazine-1-carbonyl)piperidin-1-yl)ethanone]	2410 nM	1800 nM
CN1CCN(CC2CCN(C(=O)CC(c3ccccc3)c3ccccc3)CC2)CC1 [Compound 10, 1-(4-((4-methylpiperazin-1-yl)methyl)piperidin-1-yl)-3,3-diphenylpropanon-1-one]	2520 nM	1720 nM
CN1CCN(CC2CCN(C(=O)NC(c3ccccc3)c3ccccc3)CC2)CC1 [Compound 11, N-benzhydryl-4-((4-methylpiperazine-1-yl)methyl)piperidine-1-carboxamide]	28400 nM	1500 nM
CN1CCN(C(=O)C2CCN(C(=O)CC(c3ccccc3)c3ccccc3)CC2)CC1 [Compound 12, 1-(4-(4-methylpiperazine-1-carbonyl)piperidin-1-yl)-3,3-diphenylpropan-1-one]	1260 nM	750 nM
CN1CCN(C(=O)C2CCN(C(=O)NC(c3ccccc3)c3ccccc3)CC2)CC1 [Compound 13, N-benzhydryl-4-(4-methylpiperazine-1-carbonyl)piperidine-1-carboxamide]	4480 nM	2210 nM
Cc1ccccc1C(CC(=O)N1CCC(CN2CCN(C)CC2)CC1)c1ccccc1C [Compound 14, 1-(4-((4-methylpiperazin-1-yl)methyl)piperidin-1-yl)-3,3-di-o-tolylpropan-1-one]	1900 nM	1060 nM
Cc1ccccc1C(CC(=O)N1CCC(CN2CC(C)NC(C)C2)CC1)c1ccccc1C (stereo not shown) [Compound 15, 1-(4-((3,5-dimethylpiperazin-1-yl)methyl)piperidin-1-yl)-3,3-di-o-tolylpropan-1-one]	1850 nM	1640 nM
Cc1ccccc1C(CC(=O)N1CCC(C(=O)N2CC(C)NC(C)C2)CC1)c1ccccc1C (stereo not shown) [Compound 16, 1-(4-(3,5-dimethylpiperazine-1-carbonyl)piperidin-1-yl)-3,3-di-o-tolylpropan-1-one]	5850 nM	3710 nM
Cc1ccccc1C(CC(=O)N1CCC(C(=O)N2CCNCC2)CC1)c1ccccc1C [Compound 17, 1-(4-(piperazine-1-carbonyl)piperidin-1-yl)-3,3-di-o-tolylpropan-1-one]	3520 nM	1880 nM
CC1CN(CC2CCN(C(=O)COC(c3ccccc3)c3ccccc3)CC2)CC(C)N1 (stereo not shown) [Compound 18, 2-(benzhydryloxy)-1-(4-((3,5-dimethylpiperazin-1-yl)methyl)piperidin-1-yl)ethanone]	1860 nM	1180 nM
CC1CN(CC2CCN(C(=O)C[S+]([O-])C(c3ccccc3)c3ccccc3)CC2)CC(C)N1 (stereo not shown) [Compound 19, 2-(benzhydrylsulfinyl)-1-(4-((3,5-dimethylpiperazin-1-yl)methyl)piperidin-1-yl)ethanone]	3750 nM	2400 nM
CC1CN(C(=O)C2CCN(C(=O)CNC(c3ccccc3)c3ccccc3)CC2)CC(C)N1 (stereo not shown) [Compound 20, 2-(benzhydrylamino)-1-(4-(3,5-dimethylpiperazine-1-carbonyl)piperidin-1-yl)ethanone]	8720 nM	3000 nM
CC1CN(C(=O)C2CCN(C(=O)COC(c3ccccc3)c3ccccc3)CC2)CC(C)N1 (stereo not shown) [Compound 21, 2-(benzhydryloxy)-1-(4-(3,5-dimethylpiperazine-1-carbonyl)piperidin-1-yl)ethanone]	1640 nM	990 nM
CC1CN(CC2CCN(C(=O)CC(c3ccccc3)c3ccccc3)CC2)CC(C)N1 (stereo not shown) [Compound 23, 1-(4-((3,5-dimethylpiperazin-1-yl)methyl)piperidin-1-yl)-3,3-diphenylpropan-1-one]	> 4700 nM	> 3910 nM
CC1CN(C(=O)C2CCN(C(=O)CC(c3ccccc3)c3ccccc3)CC2)CC(C)N1 (stereo not shown) [Compound 24, 1-(4-(3,5-dimethylpiperazine-1-carbonyl)piperidin-1-yl)-3,3-diphenylpropan-1-one]	> 5460 nM	> 3570 nM
CC1CN(C(=O)C2CCN(C(=O)NC(c3ccccc3)c3ccccc3)CC2)CC(C)N1 (stereo not shown) [Compound 25, N-benzhydryl-4-(3,5-dimethylpiperazine-1-carbonyl)piperidine-1-carboxamide]	> 6490 nM	9870 nM
CC1CN(C(=O)C2(c3ccccc3)CCN(C(=O)CC(c3ccccc3)c3ccccc3)CC2)CC(C)N1 (stereo not shown) [Compound 26, 1-(4-(3,5-dimethylpiperazine-1-carbonyl)-4-phenylpiperidin-1-yl)-3,3-diphenylpropan-1-one]	1310 nM	850 nM
Cc1ccccc1C(CC(=O)N1CCC(C(=O)N2CC(C)NC(C)C2)(c2ccccc2)CC1)c1ccccc1C (stereo not shown) [Compound 27, 1-(4-(3,5-dimethylpiperazine-1-carbonyl)-4-phenylpiperidin-1-yl)-3,3-di-o-tolylpropan-1-one]	410 nM	240 nM
CC1CN(C(=O)C2(c3ccccc3)CCN(C(=O)CNC(c3ccccc3)c3ccccc3)CC2)CC(C)N1 (stereo not shown) [Compound 28, 2-(benzhydrylamino)-1-(4-(3,5-dimethylpiperazine-1-carbonyl)-4-phenylpiperidin-1-yl)ethanone]	2780 nM	1610 nM
CC1CN(CC2(c3ccccc3)CCN(C(=O)CC(c3ccccc3)c3ccccc3)CC2)CC(C)N1 (stereo not shown) [Compound 30, 1-(4-((3,5-dimethylpiperazin-1-yl)methyl)-4-phenylpiperidin-1-yl)-3,3-diphenylpropan-1-one]	490 nM	320 nM
Cc1ccccc1C(CC(=O)N1CCC(CN2CC(C)NC(C)C2)(c2ccccc2)CC1)c1ccccc1C (stereo not shown) [Compound 31, 1-(4-((3,5-dimethylpiperazin-1-yl)methyl)-4-phenylpiperidin-1-yl)-3,3-di-o-tolylpropan-1-one]	610 nM	310 nM
CN1CCN(C(=O)C2(c3ccccc3)CCN(C(=O)CNC(c3ccccc3)c3ccccc3)CC2)CC1 [Compound 36, 2-(benzhydrylamino)-1-(4-(4-methylpiperazine-1-carbonyl)-4-phenylpiperidin-1-yl)ethanone]	> 21200 nM	> 12500 nM
